± gives the expanded uncertainty stated by the source.
Tests used:
[1] = Liquid; for mass density: 298.15 K, 101.33 kPa, Vibrating tube method; for vapor or sublimation pressure: Ebulliometric method (Recirculating still)
[2] = refractive index (Na D-line) (dimensionless); conditions: 298.15 K; 101.33 kPa; Liquid; Standard Abbe refractometry

Structure (SMILES)	mass density [1]	vapor or sublimation pressure ([1]; 330 K)	vapor or sublimation pressure ([1]; 340 K)	refractive index [2]	vapor or sublimation pressure ([1]; 330.04 K)	vapor or sublimation pressure ([1]; 331.02 K)	vapor or sublimation pressure ([1]; 337.07 K)	vapor or sublimation pressure ([1]; 340.05 K)	vapor or sublimation pressure ([1]; 340.57 K)	vapor or sublimation pressure ([1]; 343.73 K)	vapor or sublimation pressure ([1]; 347.76 K)	vapor or sublimation pressure ([1]; 351.12 K)	vapor or sublimation pressure ([1]; 365.8 K)	vapor or sublimation pressure ([1]; 371.23 K)	vapor or sublimation pressure ([1]; 373.22 K)	vapor or sublimation pressure ([1]; 375.59 K)	vapor or sublimation pressure ([1]; 378.26 K)	vapor or sublimation pressure ([1]; 381.01 K)	vapor or sublimation pressure ([1]; 382.94 K)	vapor or sublimation pressure ([1]; 384.94 K)
CC(C)O [propan-2-ol]	780.91 ± 0.16 kg/m3	33.25 ± 0.23 kPa	52.97 ± 0.29 kPa	1.37504 ± 0.00072	–	–	–	–	–	–	–	–	–	–	–	–	–	–	–	–
CC(C)C(=O)C(C)C [2,4-dimethyl-3-pentanone]	798.8 ± 0.21 kg/m3	8.87 ± 0.04 kPa	13.55 ± 0.06 kPa	1.3974 ± 0.0007	8.87 ± 0.04 kPa	9.28 ± 0.04 kPa	12.02 ± 0.05 kPa	13.58 ± 0.06 kPa	13.89 ± 0.06 kPa	15.78 ± 0.06 kPa	18.48 ± 0.07 kPa	21.02 ± 0.08 kPa	35.36 ± 0.11 kPa	42.49 ± 0.14 kPa	45.36 ± 0.15 kPa	49 ± 0.16 kPa	53.37 ± 0.18 kPa	58.22 ± 0.19 kPa	61.82 ± 0.2 kPa	65.74 ± 0.21 kPa
CC(C)CC(C)(C)C [2,2,4-trimethylpentane]	687.79 ± 0.2 kg/m3	25.47 ± 0.16 kPa	36.64 ± 0.2 kPa	1.38894 ± 0.00072	–	–	–	–	–	–	–	–	–	–	–	–	–	–	–	–
